The target in series [1] is PDE4. The series can be described thus: Inhibition of PDE4 (cytosolic enzyme preparation from U937 line), compared with rolipram. Format: biochemical, human. To be noted: PDE4 enzyme preparation obtained from the U937 line.

SMILES strings stand for the structures.

Usually IC50 stands for the concentration that inhibits the measured activity by half. Lower therefore signals greater potency in that assay. The melting point is the temperature, or range, at which the solid turns liquid. The compound `CCn1nc(C)c2c1C(=O)NCC(c1ccc(Br)cc1)=N2` [Example 7, 5-(4-Bromophenyl)-1-ethyl-3-methyl-6,7-dihydro-1H-pyrazolo[4,3-e][1,4]diazepin-8-one] returned a melting point of 223 °C. The compound also displayed an IC50 in series [1] of 130 nM.
The like results for `CCn1nc(C)c2c1C(=O)NCC(c1ccc3ccccc3c1)=N2` [Example 8, 1-Ethyl-3-methyl-5-naphth-2-yl-6,7-dihydro-1H-pyrazolo[4,3-e][1,4]diazepin-8-one] were, in that order, 193 °C and 210 nM.
The like results for `CCn1nc(C)c2c1C(=O)NCC(c1sccc1Cl)=N2` [Example 9, 5-(3-Chlorothien-2-yl)-1-ethyl-3-methyl-6,7-dihydro-1H-pyrazolo[4,3-e][1,4]diazepin-8-one] were, in that order, 213 °C and 150 nM.
The matching figures for `CCn1nc(C)c2c1C(=O)NCC(c1ccc(Cl)cc1)=N2` [Example 11, 5-(4-Chlorophenyl)-1-ethyl-3-methyl-6,7-dihydro-1H-pyrazolo[4,3-e][1,4]diazepin-8-one]: 215 °C and 120 nM.
With `CCn1nc(C)c2c1C(=O)NCC(c1ccc(F)cc1)=N2` [Example 13, 1-Ethyl-5-(4-fluorophenyl)-3-methyl-6,7-dihydro-1H-pyrazolo[4,3-e][1,4]diazepin-8-one], the melting point worked out at 174 °C. The compound also registered an IC50 in series [1] of 130 nM.
The matching figures for `CCn1nc(C)c2c1C(=O)NCC(c1cccc(Br)c1)=N2` [Example 14, 5-(3-Bromophenyl)-1-ethyl-3-methyl-6,7-dihydro-1H-pyrazolo-[4,3-e][1,4]diazepin-8-one]: 173 °C and 81 nM.
As to `CCn1nc(C)c2c1C(=O)NCC(c1cccc(OC)c1)=N2` [Example 18, 1-Ethyl-5-(3-methoxyphenyl)-3-methyl-6,7-dihydro-1H-pyrazolo[4,3-e][1,4]diazepin-8-one], the melting point was found to be 120 °C. The compound also came in with an IC50 in series [1] of 100 nM.
The matching figures for `CCn1nc(C)c2c1C(=O)NCC(c1ccccc1N)=N2` [Example 19, 5-(2-Aminophenyl)-1-ethyl-3-methyl-6,7-dihydro-1H-pyrazolo[4,3-e][1,4]diazepin-8-one]: 156 °C and 87 nM.
The matching figures for `CCn1nc(C)c2c1C(=O)NCC(c1ccccc1OC)=N2` [Example 20, 1-Ethyl-5-(2-methoxyphenyl)-3-methyl-6,7-dihydro-1H-pyrazolo[4,3-e][1,4]diazepin-8-one]: 214 °C and 99 nM.
In turn, `CCCn1nc(C)c2c1C(=S)NCC(c1ccccc1)=N2` [Example 22, 3-Methyl-5-phenyl-1-propyl-6,7-dihydro-1H-pyrazolo[4,3-e][1,4]diazepin-8-thione] showed a melting point of 156 °C. It took 28 nM to reach half-maximal inhibition in series [1] (IC50).
The compound `CCn1nc(C(C)C)c2c1C(=O)NCC(c1ccc(N)cc1)=N2` [Example 27, 5-(4-Aminophenyl)-1-ethyl-3-isopropyl-6,7-dihydro-1H-pyrazolo[4,3-e][1,4]diazepin-8-one] came in with a melting point of 191 °C. This compound yielded a half-maximal inhibitory concentration (IC50) in series [1] of 3.8 nM.
The matching figures for `CCCn1nc(C)c2c1C(=O)NCC(c1ccc(N)cc1)=N2` [Example 29, 5-(4-Aminophenyl)-3-methyl-1-propyl-6,7-dihydro-1H-pyrazolo[4,3-e][1,4]diazepin-8-one]: 225 °C and 330 nM.
The like results for `CCn1nc(C)c2c1C(=O)NCC(C(C)(C)C)=N2` [Example 33, 5-tert-Butyl-1-ethyl-3-methyl-6,7-dihydro-1H-pyrazolo[4,3-e][1,4]diazepin-8-one] were, in that order, 120 °C and 110 nM.
The matching figures for `CCCCc1nn(CC)c2c1N=C(c1ccccc1)CNC2=S` [Example 52, 3-Butyl-1-ethyl-5-phenyl-6,7-dihydro-1H-pyrazolo[4,3-e][1,4]diazepin-8-thione]: 151.5 °C and 0.65 nM.
